# Assays:
# Lymphoid leukemia L1210 = experiment: Influence of extract samples on curative effect of DDP in L1210 leukemia (TGI, LI); assay type: in vivo, mice BDF1; details: for TGI, % days 4: day 4; for TGI, % days 6: day 6; for TGI, % days 8: day 8; for LI, %: lifetime increase
# Description: In addition, the effect of the extracts on the therapeutic activity of the cytostatic cis-dichlorodiamine platinum (DDP) was estimated.
# Lymphoid leukemia L1210 was inoculated to BDF1 males in a sterile physiologic salt solution, 3x10^6 cells in 0.2 ml volume. The day of the inoculation was regarded as the zero day of tumor growth. The extract samples and DDP were administered in the doses and under the conditions specified in Tables 4, 5.
# Treatment of the animals was started 24 hours after the tumor inoculation, control animals were administered a physiologic salt solution instead of the vegetable extracts. The antitumoric effect was estimated from the tumor growth inhibition (TGI) calculated from theformula: TGI = [(Vcontrol - Vexperiment)/Vcontrol]x100%; [formula] mean lifetime (ML), lifetime increase (LI) calculated from the formula: LI = [(MLexperiment - MLcontrol)/Mlcontrol]x100%. [formula] TGI > 50%, LI > 50% were considered to be biologically significant effects.
# The obtained data were processed in accordance with the Fisher-Student procedure, using statistical programs. The differences were regarded confident at p < 0.05.
# [1] = test system: cell culture of human pulmonary adenocarcinoma A-549; experiment: Cytotoxic activity in vitro: inhibition of proliferation of A-549 cell culture, colorimetric; assay type: cell-based
# Description: The cytotoxic activity of the extracts in vitro was determined with the help of a biological test based on inhibition of the proliferation of the inoculated cell culture of human pulmonary adenocarcinoma A-549 [7].
# When carrying out the cytotoxic biological test in vitro, each well of a flat-bottomed 96-well microtiter (Sarstedt, USA) was charged with 10 µl of a suspension of A549-line cells in a concentration of 1x10^5 cell/ml; 24 h later series dilutions of the vegetable preparations in the range of 1:4-1:64 were added, this corresponding to 3.0-0.1 mg/ml in the volume of 100 µl/well. The cytotoxic activity of the extracts and DDP was estimated colorimetrically. The results were expressed in the percentage of inhibition of the A-549 test-culture proliferation. The cytotoxic activity of the sample was adopted to be the maximum titer of the sample, at which the biologically significant (50%) level of inhibition of the A-549 test-culture proliferation was observed.
# [2] = test system: lipid peroxidation processes (LPP) in murine liver homogenate; experiment: Antioxidant activity: inhibition of lipid peroxidation processes (LPP) in liver homogenate, thiobarbituric acid colour reaction; assay type: biochemical, BDF-1 (nondescript) mice; details: conventional unit = quantity required for 50% inhibition of LPP; 3 h at 37°C
# Description: The antioxidant activity of the extracts was determined from the ability of a sample to inhibit the lipid peroxidation processes (LPP) in murine liver homogenate.
# The antioxidant activity was used by using a method based on the ability of the sample being investigated to inhibit LPP processes in murine liver homogenate. The liver of BDF-1 (nondescript) mice was homogenized in a glass homogenizer and then centrifugated. The liver homogenate was introduced in an amount of 5-6 mg of protein per assay. The volume of the assay was brought to 0.5 ml with a solution of the sample being tested for the antioxidant activity. The assays were incubated for 3 h at 37°C.
# The concentration of the LPP products was determined from the color reaction with thiobarbituric acid. The quantity of the antioxidant required for the 50% inhibition of LPP was adopted as a conventional unit of the sample under investigation.
compound,measurement,setting,value
"N.N.[Cl][Pt][Cl] [DDP, cis-dichlorodiamine platinum]","TGI, % days 4",Lymphoid leukemia L1210; DDP alone 9 mg/kg,100%
same,"TGI, % days 6",Lymphoid leukemia L1210; DDP alone 9 mg/kg,93%
same,"TGI, % days 8",Lymphoid leukemia L1210; DDP alone 9 mg/kg,33%
same,"LI, %",Lymphoid leukemia L1210; DDP alone 9 mg/kg,41%
same,"TGI, % days 4",Lymphoid leukemia L1210; DDP alone 10 mg/kg,100%
same,"TGI, % days 6",Lymphoid leukemia L1210; DDP alone 10 mg/kg,87%
same,"TGI, % days 8",Lymphoid leukemia L1210; DDP alone 10 mg/kg,65%
same,"LI, %",Lymphoid leukemia L1210; DDP alone 10 mg/kg,32%
same,"Inhibition, %","[1]; A-549 proliferation, at the titer/concentration in the column beside it",68%
same,Maximum titer (as concentration),[1]; DDP control,10 µg/mL
same,ability to inhibit proliferation of the cell culture A-549,[1]; at the concentration of 0.01 mg/ml,68%
"O=C1O[C@H]([C@@H](O)CO)C(O)=C1O [Ascorbic acid (vitamin C), Ascorbic acid]","Antioxidant activity, conv. units (1/mg)",[2],12 conv. units (1/mg)
Retinol acetate [Retinol acetate (vitamin A)],"Antioxidant activity, conv. units (1/mg)",[2],83 conv. units (1/mg)
CC1=C(/C=C/C(C)=C/C=C/C(C)=C/C=C/C=C(C)/C=C/C=C(C)/C=C/C2=C(C)CCCC2(C)C)C(C)(C)CCC1 [β-Carotene],"Antioxidant activity, conv. units (1/mg)",[2],6 conv. units (1/mg)
